According to patent US9580330B2, “Anhydrous, amorphous and porous magnesium carbonates and methods of production thereof” (DISRUPTIVE MATERIALS AB, priority 2012, dated 2017):

Legend:
[1] = Drug release measurement, USP-2 dissolution bath; assay type: physicochemical; conditions: phosphate buffer pH 6.8, 37° C., 50 rpm, 17.5 mg ibuprofen in 500 mL
Procedure: Drug Release Measurement: The release of ibuprofen was carried out in a USP-2 dissolution bath (Sotax AT7 Smart, Sotax AG, Switzerland) equipped with 1000 mL vessels (37° C., 50 rpm). Samples with a total drug content of 17.5 mg ibuprofen were placed in vessels containing 500 mL phosphate buffer (pH=6.8). […] Aliquots of 3 mL were withdrawn from each vessel at regular intervals for 125 min and the drug concentration in the liquid samples was analysed using UV/vis absorbance spectroscopy (1650PC, Shimadzu Corporation, Kyoto, Japan).

[2] = Thermal gravimetric analysis (TGA) of Example 28 samples; assay type: physicochemical; conditions: air flow, 3 K min^−1
Procedure: Thermal gravimetric analysis (TGA) was carried out on a Mettler Toledo, model TGA/SDTA851e, under an air flow in an inert alumina cup. The samples were heated from room temperature to 600° C. with a heating rate of 3 K min^−1.

SMILES: CC(C)Cc1ccc(C(C)C(=O)O)cc1 (centres unmarked) [free ibuprofen, ibuprofen]
- time until about 50% of the ibuprofen is dissolved [1]: about 30 minutes
- decomposition temperature of ibuprofen [2]: about 200 °C
